“Also recorded” adds a separate entry of the source.
Assays:
[1] = system: K. pneumoniae pre-formed biofilms; assay: Dispersal of pre-formed biofilms under flow, K. pneumoniae; type: cell-based, Klebsiella pneumoniae; details: 100 μM added at 24 hours, 3, 6 and 24-hour incubation
S. boydii = assay: Flow-cell biofilm formation (CLSM), S. boydii; type: cell-based, Shigella boydii; details: 100 μM, 48 h
S. aureus = type: cell-based, Staphylococcus aureus; details: data not shown
[2] = system: phosphodiesterase (PDE) enzyme VieA; type: biochemical
Source text: (§1) Furthermore, we established an in vitro assay to measure the activity of the diguanylate cyclase (DGC) enzyme VC2370 that synthesizes c-di-GMP and the phosphodiesterase (PDE) enzyme VieA that degrades c-di-GMP.

[3] = system: diguanylate cyclase (DGC) enzyme VC2370; type: biochemical
Source text: as §1

V. cholerae [4] = assay: Flow-cell biofilm formation (CLSM), V. cholerae; type: cell-based, Vibrio cholerae; details: 10 μM, 24 hours
Description: For biofilm experiments under flow conditions, biofilms were grown in disposable flow cells (Stovall Life Science, Greensboro, N.C.) as described elsewhere. In brief, the inlet side of the flow cell was connected to a sterile reservoir filled with the appropriate growth medium. The outlet side was connected to a waste reservoir to create a “once-through” flow cell system. Tubing upstream of each individual cell was injected with 0.5 mL of standardized overnight culture of the test strain and the chamber was incubated in upright position at 37° C. for 1 h. Flow was then resumed with flow rate of 0.2 mL/min for V. cholerae, P. aeruginosa, S. boydii, S. aureus and K. pneumoniae, and a flow rate of 0.15 mL/min for E. amylovora. The non-adherent bacteria were eventually flushed by the flow of the medium thereby replacing the volume of the flow cell once every minute. Biofilm formation on the flow cell was imaged both macroscopically and microscopically at 24 h and 48 h. […]
For CLSM analysis of biofilms, the medium flow was stopped and fluorescent dyes syto-9 and propidium iodide (Molecular Probes, Eugene, Oreg., USA) were injected into the flow cell chamber and incubated for 30 min in the dark. […] Thickness of the biofilm was measured starting from the z-section at the flow-cell/biofilm interface to the z-section at the top of the biofilm surface containing <5% of total biomass. […]

S. aureus strain Newman [5] = assay: MBEC static biofilm assay, S. aureus Newman; type: cell-based, Staphylococcus aureus; details: 25 μM
Description: (§2) Biofilm formation was measured under both static and flow conditions. For the static condition, we used quantitative crystal violet assay on polystyrene 96-well and MBEC plates (Biosurface Technologies, Bozeman Mont.) as described previously. The MBEC technology is a 96-well plate cover containing 96 polystyrene pegs that sit in the 96 wells of a conventional plate. Briefly, overnight grown cultures were standardized to 0.1 OD595, 200 μL was transferred to the wells of a 96-well polystyrene microtiter plate (Corning, Inc., Corning, N.Y.), and the MBEC lid was placed on top of the wells. Biofilms were grown on the pegs of the lid under shaking conditions for 24 h. The lid was removed and the pegs were gently washed twice with 200 μL of phosphate-buffered saline to remove non adherent cells. Adherent biofilms on the pegs were fixed with 200 μL of 100% ethanol prior to staining for 2 min with 200 μL of 0.41% (wt/vol) crystal violet in 12% ethanol (Protocol Crystal Violet; Biochemical Sciences, Swedesboro, N.J.). […] Quantitative assessment of biofilm formation was obtained by immersing the pegs in sterile polystyrene microtiter plate containing 200 μl of 100% ethanol and incubating at room temperature for 10 min (60) and the absorbance at 595 nm was determined using a SpectraMax M5 microplate spectrophotometer system (Molecular Devices, Sunnyvale, Calif.). […]

S. aureus strain Newman [6] = assay: Flow-cell biofilm formation (CLSM), S. aureus Newman; type: cell-based, Staphylococcus aureus; details: 25 μM, shear conditions
Klebsiella pneumoniae [7] = assay: Flow-cell biofilm formation (CLSM), K. pneumoniae; type: cell-based; details: continuous flow
CA-MRSA (USA-300) = assay: Flow-cell biofilm formation (CLSM), CA-MRSA USA300; type: cell-based, Staphylococcus aureus; details: 25 μM, shear conditions
P. aeruginosa CF-145 [8] = assay: Flow-cell biofilm formation (CLSM), P. aeruginosa CF-145; type: cell-based, Pseudomonas aeruginosa; details: 100 μM, 24 h
E. amylovora = assay: Flow-cell biofilm formation (CLSM), E. amylovora; type: cell-based, Erwinia amylovora; details: 100 μM, continuous flow
[9] = system: P. aeruginosa pre-formed biofilms; assay: Dispersal of pre-formed biofilms under flow, P. aeruginosa; type: cell-based, Pseudomonas aeruginosa; details: 100 μM added at 24 hours, 3, 6 and 24-hour incubation
gram-negative bacteria = assay: Impact on growth of gram-negative bacteria; type: cell-based; details: concentrations used in biofilm tests; data not shown
Klebsiella pneumoniae [10] = assay: MBEC static biofilm assay, K. pneumoniae; type: cell-based; details: ABC-1 between 50 and 100 μM for select pathogens, 24 hours
Description: as §2

P. aeruginosa CF-145 [11] = assay: MBEC static crystal-violet biofilm assay, P. aeruginosa CF-145; type: cell-based, Pseudomonas aeruginosa
Description: as §2

Shigella boydii = assay: MBEC static biofilm assay, S. boydii; type: cell-based; details: 100 μM
Description: as §2

[12] = system: Staphylococcus aureus MRSA strain USA3000; assay: MBEC static biofilm assay, S. aureus USA300 (CA-MRSA); type: cell-based; details: 25 μM
Description: as §2

Erwinia amylovora = assay: MBEC static biofilm assay, E. amylovora; type: cell-based; details: 100 μM
Description: as §2

V. cholerae [13] = assay: MBEC static crystal-violet biofilm assay, V. cholerae; type: cell-based, Vibrio cholerae; details: for inhibition of V. cholerae biofilm development: 100 μM, MBEC crystal-violet assay
VC1673-lux = assay: microbe, parasite or virus in culture; details: Vibrio cholerae, read-out: IC50 of inhibition of VC1673-lux
c-di-GMP in V. cholerae = type: cell-based, Vibrio cholerae
[14] = system: c-di-GMP in P. aeruginosa PA01; type: cell-based, Pseudomonas aeruginosa; details: 35 μM, data not shown

COc1ccc2[nH]c(SCc3ccc(C)cc3)nc2c1 [ABC-1, 5-methoxy-2-[(4-methylbenzyl)sulfanyl]-1H-benzimidazole]
dispersal of pre-formed biofilms [1]: did not confer any significant changes in biofilm architecture
biofilm formation under flow (S. boydii): greatly reduced biofilm formation
concentration that inhibited the growth of S. aureus (S. aureus): ≥ 50 µM
in vitro activity of PDE VieA [2]: no significant impact
in vitro activity of DGC VC2370 [3]: no significant impact
biofilm formation under flow (V. cholerae [4]): dramatically reduced biofilm formation
inhibition of biofilms, static (S. aureus strain Newman [5]): significantly inhibited biofilms; also recorded: statistically significant (P<0.05), but less robust than observed for most gram-negative pathogens
biofilm formation under flow (S. aureus strain Newman [6]): less surface area coverage and biofilms were present as small patches
biofilm formation under flow (Klebsiella pneumoniae [7]; 24 hours): inhibited biofilm formation
fate of biofilms that did form in the presence of ABC-1 (Klebsiella pneumoniae [7]; data not shown): began to disperse beyond 30 hours
biofilm formation under flow (CA-MRSA (USA-300)): reduced compared to the untreated condition
biofilm formation under flow (P. aeruginosa CF-145 [8]): greatly reduced biofilm formation
biofilm development under flow (E. amylovora): pronounced decrease
dispersal of pre-formed biofilms [9]: did not confer any significant changes in biofilm architecture
inhibition of growth of gram-negative bacteria (gram-negative bacteria): no impact on growth; also recorded: no concentration of ABC-1 showed inhibition of growth
inhibition of biofilms, static (Klebsiella pneumoniae [10]): significantly inhibited biofilms; also recorded: inhibited biofilm formation
inhibition of biofilms, static (P. aeruginosa CF-145 [11]; ABC-1 between 50 and 100 μM for select pathogens, MBEC static): significantly inhibited biofilms
IC50 (P. aeruginosa CF-145 [11]; Pseudomonas aeruginosa, CF145, read-out: IC50 to inhibit biofilm formation of P. aeruginosa): 45.9 nM
inhibition of biofilms, static (Shigella boydii): significantly inhibited biofilms; also recorded: significantly impacted
inhibition of biofilms, static [12]: significantly inhibited biofilms; also recorded: statistically significant (P<0.05), but less robust than observed for most gram-negative pathogens
inhibition of biofilms, static (Erwinia amylovora): significantly inhibited biofilms; also recorded: pronounced decrease
inhibition of V. cholerae biofilm development (V. cholerae [13]): capable of significantly inhibiting V. cholerae biofilm development
IC50 (V. cholerae [13]; Vibrio cholerae, read-out: IC50 to inhibit biofilm formation of V. cholerae): 32.3 nM
IC50 (VC1673-lux): < 10000 nM
intracellular c-di-GMP (c-di-GMP in V. cholerae): modest reduction
levels of c-di-GMP [14]: no effect

COc1ccc2[nH]c(SCc3ccc(Cl)cc3)nc2c1 [ABC-2, 2-[(4-chlorobenzyl)thio]-5-methoxy-1H-benzimidazole]
inhibition of V. cholerae biofilm development (V. cholerae [13]): capable of significantly inhibiting V. cholerae biofilm development
IC50 (VC1673-lux): < 10000 nM
